# From US8183212B2, “Compound having GPR54 agonistic activity” (Kyoto University, priority 2006, dated 2012)
# Square brackets hold non-standard residues; d marks the D form. Peptide text beside a SMILES is read from it. 2Nal = N[C@@H](Cc1ccc2ccccc2c1)C(=O)O; 4Amb = NCc1ccc(C(=O)O)cc1; 4Abz = Nc1ccc(C(=O)O)cc1
# Target: GPR54 (Homo sapiens, UniProt Q969F8)
# Test: GPR54 agonist activity by Flipr assay (increase in intracellular Ca2+ measured as fluorescence intensity)
# Type: cell-based
# Settings: for % activity: fluorescence intensity with 10^-8 M pentapeptide derivative relative to 10^-6 M metastin (45-54) as 100%; for Q (=EC50 (compound)/EC50 [metastin (45-54)]): specific activity value relative to metastin (45-54)
# Method: A compound having GPR54 agonist activity (pentapeptide derivative) was prepared according to a conventional Fmoc solid phase synthesis process using Rink-amide resin (Fields G B, Noble R L., Int J Pept Protein Res. 1990; 35, 161-214.). The GPR54 agonist activity of the obtained pentapeptide derivative was evaluated according to Flipr assay method wherein an increase in the intracellular Ca^2+ ion concentration due to receptor stimulation is measured as the fluorescence intensity. […] Hereafter, the agonist activity was mainly compared based on the Q value.
# Sequence of GPR54 (Q969F8 whole entry, species assumed): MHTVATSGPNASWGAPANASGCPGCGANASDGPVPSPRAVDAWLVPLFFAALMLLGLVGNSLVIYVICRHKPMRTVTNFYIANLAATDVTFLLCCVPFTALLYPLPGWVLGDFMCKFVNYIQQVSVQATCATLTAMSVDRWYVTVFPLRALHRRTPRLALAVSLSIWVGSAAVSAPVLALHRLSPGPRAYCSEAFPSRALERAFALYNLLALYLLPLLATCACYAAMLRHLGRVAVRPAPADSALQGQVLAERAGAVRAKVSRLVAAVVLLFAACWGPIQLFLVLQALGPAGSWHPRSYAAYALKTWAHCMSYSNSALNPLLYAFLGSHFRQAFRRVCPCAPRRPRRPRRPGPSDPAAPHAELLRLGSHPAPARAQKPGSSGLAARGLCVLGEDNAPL
Structure (SMILES),% activity [%],also measured
"CC(C)C[C@H](NC(=O)CNC(=O)[C@H](Cc1ccccc1)NC(=O)c1ccc(CN(Cc2ccccn2)Cc2ccccn2)cc1)C(=O)N[C@@H](CCCNC(=N)N)C(=O)N[C@@H](Cc1c[nH]c2ccccc12)C(N)=O [Compound 1, reference compound]",89,–
"CC(C)C[C@H](NC(=O)CNC(=O)[C@H](Cc1ccccc1)NC(=O)c1ccc(CNC(=N)N)cc1)C(=O)N[C@@H](CCCNC(=N)N)C(=O)N[C@@H](Cc1c[nH]c2ccccc12)C(N)=O [Compound 2, reference compound]",94,–
"CC(C)C[C@H](NC(=O)CNC(=O)[C@H](Cc1ccccc1)NC(=O)c1ccc(CN)cc1)C(=O)N[C@@H](CCCNC(=N)N)C(=O)N[C@@H](Cc1c[nH]c2ccccc12)C(N)=O [Compound 6, 4-(aminomethyl)benzoyl-Phe-Gly-Leu-Arg-Trp-NH2] (H-[4Amb]FGLRW-NH2)",97,Q (=EC50 (compound)/EC50 [metastin (45-54)]): 3.4
"CC(C)C[C@H](NC(=O)CNC(=O)[C@H](Cc1ccc2ccccc2c1)NC(=O)c1ccc(CN)cc1)C(=O)N[C@@H](CCCNC(=N)N)C(=O)N[C@@H](Cc1c[nH]c2ccccc12)C(N)=O [Compound 8, 4-(aminomethyl)benzoyl-Nal(2)-Gly-Leu-Arg-Trp-NH2] (H-[4Amb][2Nal]GLRW-NH2)",89,"agonist activity, times stronger than compound 6 (compared with compound 6): about 4 times"
"CC(C)C[C@H](NC(=O)CNC(=O)[C@H](Cc1ccccc1)NC(=O)c1ccc(N)cc1)C(=O)N[C@@H](CCCNC(=N)N)C(=O)N[C@@H](Cc1c[nH]c2ccccc12)C(N)=O [Compound 20, 4-aminobenzoyl-Phe-Gly-Leu-Arg-Trp-NH2] (H-[4Abz]FGLRW-NH2)",90,–
"CC(C)C[C@H](NC(=O)CNC(=O)[C@H](Cc1ccccc1)NC(=O)c1c[nH]cn1)C(=O)N[C@@H](CCCNC(=N)N)C(=O)N[C@@H](Cc1c[nH]c2ccccc12)C(N)=O [Compound 26, 4-imidazolylcarbonyl-Phe-Gly-Leu-Arg-Trp-NH2]",88,–
"CC(C)C[C@H](NC(=O)CNC(=O)[C@H](Cc1ccccc1)NC(=O)c1ccc[nH]1)C(=O)N[C@@H](CCCNC(=N)N)C(=O)N[C@@H](Cc1c[nH]c2ccccc12)C(N)=O [Compound 27, 2-pyrrolylcarbonyl-Phe-Gly-Leu-Arg-Trp-NH2]",96,–
"CC(=O)NCc1ccc(C(=O)N[C@@H](Cc2ccccc2)C(=O)NCC(=O)N[C@@H](CC(C)C)C(=O)N[C@@H](CCCNC(=N)N)C(=O)N[C@@H](Cc2c[nH]c3ccccc23)C(N)=O)cc1 [Compound 28, N-acetyl-4-(aminomethyl)benzoyl-Phe-Gly-Leu-Arg-Trp-NH2] (Ac-[4Amb]FGLRW-NH2)",100,–
"CC(C)C[C@H](NC(=O)CNC(=O)[C@H](Cc1ccccc1)NC(=O)c1ccc(O)cc1)C(=O)N[C@@H](CCCNC(=N)N)C(=O)N[C@@H](Cc1c[nH]c2ccccc12)C(N)=O [Compound 30, 4-hydroxybenzoyl-Phe-Gly-Leu-Arg-Trp-NH2]",95,–
"CC(C)C[C@H](NC(=O)CNC(=O)[C@H](Cc1ccccc1)NC(=O)c1ccc([N+](=O)[O-])cc1)C(=O)N[C@@H](CCCNC(=N)N)C(=O)N[C@@H](Cc1c[nH]c2ccccc12)C(N)=O [Compound 37, 4-nitrobenzoyl-Phe-Gly-Leu-Arg-Trp-NH2]",94,–
"CC(C)C[C@H](NC(=O)CNC(=O)[C@H](Cc1ccccc1)NC(=O)c1ccc(Cl)cc1)C(=O)N[C@@H](CCCNC(=N)N)C(=O)N[C@@H](Cc1c[nH]c2ccccc12)C(N)=O [Compound 38, 4-chlorobenzoyl-Phe-Gly-Leu-Arg-Trp-NH2]",92,–
"CC(C)C[C@H](NC(=O)CNC(=O)[C@H](Cc1ccccc1)NC(=O)c1ccc(F)cc1)C(=O)N[C@@H](CCCNC(=N)N)C(=O)N[C@@H](Cc1c[nH]c2ccccc12)C(N)=O [Compound 39, 4-fluorobenzoyl-Phe-Gly-Leu-Arg-Trp-NH2]",96,–
"CC(C)C[C@H](NC(=O)CNC(=O)[C@H](Cc1ccccc1)NC(=O)[C@H](CO)NC(=O)[C@H](CC(N)=O)NC(=O)[C@H](Cc1c[nH]c2ccccc12)NC(=O)[C@H](CC(N)=O)NC(=O)[C@@H](N)Cc1ccc(O)cc1)C(=O)N[C@@H](CCCNC(=N)N)C(=O)N[C@@H](Cc1ccccc1)C(N)=O [Metastin (45-54), reference compound]",100,EC50: 0.36 to 1.1 nM; Q (=EC50 (compound)/EC50 [metastin (45-54)]): 1.0
